Assay results reported in patent publication US20230321089A1, “COMBINATION OF CABOTEGRAVIR AND LEVONORGESTREL” (ViiV Healthcare Company, priority 2020, published 2023).

Tests used:
[1] = tested on: HIV-1 strains; conditions: broad range of HIV-1 strains; cited from earlier work
[2] = set-up: species or system male Sprague Dawley rats; conditions: rat, in vivo
Procedure: To prepare the combination product, LNG and LNG-b suspensions were added to Cabotegravir suspensions at 500 mg/mL to achieve a final Cabotegravir concentration of approximately 200 mg/mL and a final LNG and LNGb concentration of […], using a solution of 2.0% Mannitol in water to adjust the final concentrations to target. Concentrations of P338 and PEG3350 were at 4.5%. The resulting suspensions were flushed with nitrogen, stoppered (FM457 stopper), and sealed. The suspensions were terminally sterilized by gamma irradiation at a minimum dose of 25 kGy.
The pharmacokinetics of co-suspensions of Cabotegravir and LNG/LNG-b, prepared as described above, were evaluated in male Sprague Dawley rats. The formulations that were tested included: • i. 200 mg/mL Cabotegravir and 40 mg/mL LNG—0.2 microns • ii. 200 mg/mL Cabotegravir 40 mg/mL LNG—1 micron • iii. 200 mg/mL Cabotegravir and 40 mg/mL LNGb—0.2 microns • iv. 200 mg/mL Cabotegravir 40 mg/mL LNGb—1 micron
Rats were administered co-suspensions either intramuscularly or subcutaneously at target doses of 10 mg/kg Cabotegravir and […] LNG or LNGb. […] FIG. 2 is a comparison of Levonorgestrel blood concentration pharmacokinetic profiles after intramuscular vs. subcutaneous administration. The average particle size of LNG for these formulations was 0.2 microns in diameter. […] Furthermore, FIG. 3 is a comparison of LNG and LNG-b co-formulated with Cab.

C[C@H]1CO[C@@H]2Cn3cc(C(=O)NCc4ccc(F)cc4F)c(=O)c(O)c3C(=O)N12 [Cabotegravir, N-((2,4-Difluorophenyl)methyl)-6-hydroxy-3-methyl-5,7-dioxo-2,3,5,7,11,11a hexahydro(1,3)oxazolo(3,2-a)pyrido(1,2-d)pyrazine-8-carboxamide]
potency [1]: subnanomolar

C#C[C@]1(O)CC[C@H]2[C@@H]3CCC4=CC(=O)CC[C@@H]4[C@H]3CC[C@@]21CC [LNG, Levonorgestrel]
Levonorgestrel blood concentration pharmacokinetic profile: intramuscular vs. subcutaneous administration [2]: does not appear to be a significant impact

C#C[C@]1(OC(=O)CCC)CC[C@H]2[C@@H]3CCC4=CC(=O)CC[C@@H]4[C@H]3CC[C@@]21CC [LNGb, Levonorgestrel-butanoate]
Cmax compared with LNG ([2]; sc): lower
apparent half-life compared with LNG ([2]; sc): slightly longer
